Peptide text beside a SMILES is read from it.
Row | SMILES | logP
1 | Cc1ccc(Cl)cc1NC1=NCCN1 | 1.83
2 | COC(=O)c1ccncc1 | 0.87
3 | CNC(=O)Oc1ccccc1C(C)(C)C | 2.65
4 | CCCOc1ccccc1 | 3.18
5 | CC(CO)NC1=C(N2CC2)C(=O)C(NC(C)CO)=C(N2CC2)C1=O (configuration not stated) | -0.37
6 | NCCO | -1.31
7 | CCOP(=S)(OCC)Oc1ccc([N+](=O)[O-])cc1 | 3.83
8 | O=C1C2(Cl)C3(Cl)C4(Cl)C(Cl)(Cl)C5(Cl)C3(Cl)C1(Cl)C5(Cl)C24Cl (configuration not stated) | 5.41
9 | CCCC(NC(C)=O)C(=O)OC (configuration not stated) | 0.33
10 | COc1cccc(Cl)c1 | 2.98
11 | CC(=O)Oc1ccccc1Br | 2.2
12 | CCC(=O)OCC(=O)C1(O)CCC2C3CCC4=CC(=O)CCC4(C)C3C(O)CC21C (configuration not stated) | 2.8
13 | CCC1(C2=CCCCCC2)C(=O)NC(=O)NC1=O | 2.03
14 | C=CCC | 2.4
15 | Cn1cnc([N+](=O)[O-])n1 | -0.68
16 | O=C1CCCO1 | -0.64
17 | N#Cc1cccs1 | 1.27
18 | CNC(=O)N(C)c1ccccc1 | 1.02
19 | NS(=O)(=O)c1ccc(Br)cc1 | 1.36
20 | Cc1ccc(N)nc1 | 1.02
21 | CNC(=O)Oc1cccc(C=O)c1 | 0.92
22 | CN(Cc1ccccc1)c1ccccc1 | 4.22
23 | c1ccc(OP2OCCO2)cc1 | 1.42
24 | NCCCCCc1ccccn1 | 1.32
25 | O=C1CCC(=O)N1c1ccccc1 | 0.06
26 | Nc1ccc(C(=O)Oc2ccccc2)c(O)c1 | 3.15

Row | SMILES | logP
27 | O=C(O)c1ccoc1 | 1.03
28 | ICCCI | 3.02
29 | CSCS(=O)CC(C)NC(=O)C=Cc1c(C)[nH]c(=O)[nH]c1=O (configuration not stated) | -0.7
30 | CN(C)C1=CC(=O)c2ccccc2C1=O | 1.9
31 | CNC(=O)Nc1ccccc1 | 1.12
32 | OCC(Br)(Br)Br | 2.1
33 | CCCOC(=O)c1cc(O)c(O)c(O)c1 | 1.8
34 | Oc1cnc2ccccc2c1 | 2.08
35 | O=C(NC(CO)C(O)c1ccc(Br)cc1)C(Cl)Cl (configuration not stated) | 1.87
36 | O=C(O)CCC(=O)c1ccc(-c2ccccc2)cc1 | 3.2
37 | Clc1cc(-c2ccccc2)c(Cl)c(Cl)c1Cl | 6.41
38 | CN(C)/N=N/c1ccccc1I | 3.5
39 | CC(=O)C(=Cc1cccc(Cl)c1)C(C)=O | 2.26
40 | CCCc1nc2cccc(C)n2c(=O)c1CC | 2.37
41 | CN(C=O)c1ccccc1 | 1.09
42 | Oc1ccccc1Br | 2.35
43 | N#Cc1ccccc1O | 1.61
44 | c1nc[nH]n1 | -0.58
45 | O=C1C=CC(=O)N1 | -0.29
46 | CC(C)S[C@@H]1O[C@H](CO)[C@H](O)[C@H](O)[C@H]1O | -1.26
47 | c1ccc(Sc2cccnc2)cc1 | 3.15
48 | CSc1ccc(COC(=O)N(C)C)cc1 | 2.86
49 | CC(=O)c1ccnc2cc(Cl)ccc12 | 2.62
50 | CCN(CC)N=Nc1ccc(S(C)(=O)=O)cc1 | 2.6
51 | ClCCl | 1.25
52 | Cc1c(Cl)cccc1Nc1ccccc1C(=O)O | 5.17

Row | SMILES | logP
53 | CS(C)(=O)=O | -1.41
54 | CN(C)C(N(C)C)=S(I)c1cccc(F)c1 (configuration not stated) | -0.53
55 | S=C1CCCO1 | 0.6
56 | CC(=O)c1ccc[nH]1 | 0.93
57 | O=Nc1c(O)ccc2ccccc12 | 2.28
58 | CCCOc1cccc(C=C(C(=O)OCC)C(=O)OCC)c1 | 4
59 | O=C(O)COc1ccc2c(c1)CCCC2 | 2.67
60 | O=C(O)Cc1ccccc1Oc1ccc(Cl)cc1Cl | 4.8
61 | O=C1OC2(CCCC2)c2ccccc21 | 2.56
62 | Nc1ccc(Cl)nn1 | 0.35
63 | CN(C)C(=O)Nc1ccc(F)cc1 | 1.13
64 | CC(=O)Nc1ccc(OCC(O)CNC(C)C)cc1 (configuration not stated) | 0.79
65 | CNc1ccc(C)cc1 | 2.15
66 | CC(C)N1CCN=C1CN1CCCCSc2ccc(Cl)cc21 | 5.15
67 | O=[N+]([O-])c1ccc(OCCN2CCOCC2)cc1 | 1.54
68 | SC1=NCCCN1 | -0.68
69 | Fc1ccccc1CCl | 2.67
70 | Cc1c[nH]c(=O)[nH]c1=O | -0.62
71 | C1OCOCO1 | -0.43
72 | COc1ccc(OC(C)=O)cc1 | 1.54
73 | CCCCCCCC(C)=O | 3.14
74 | CCCCCc1ccc(N)cc1 | 3.39
75 | Oc1c(Cl)ccc(Cl)c1Cl | 3.77
76 | Clc1ccc(-c2ccccc2Cl)c(Cl)c1 | 5.76
77 | CCCCCCCCCCCCCC[n+]1ccccc1.[Br-] | 1.32
78 | C1CCCCCC1 | 4

Row | SMILES | logP
79 | COC(=O)Cc1ccccc1 | 1.83
80 | COC(=O)Nc1cccc(Cl)c1 | 2.58
81 | O=[N+]([O-])c1cccs1 | 1.55
82 | O=C1CN=C(c2ccccc2)c2cc(F)ccc2N1 | 2.32
83 | O=C(O)c1c(Cl)cccc1Cl | 2.23
84 | Clc1ccccc1Cl | 3.43
85 | CCC(=O)C1(c2cccc(OC(=O)C(C)(C)C)c2)CCN(C)CC1 | 2.59
86 | CC(=O)[C@@]1(O)CC[C@H]2[C@@H]3CCC4=CC(=O)CC[C@]4(C)[C@H]3CC[C@@]21C | 3.17
87 | CCCCOC(C)=O | 1.78
88 | C=CCC1(C(C)CC)C(=O)NC(=O)NC1=O (configuration not stated) | 1.47
89 | CC1(C)CCCC(C)(C)N1 | 2.15
90 | CCCC(CC(C)=O)C(=O)O (configuration not stated) | 1.31
91 | O=C1C=CCCC1 | 0.61
92 | CCC(C)[N+](=O)[O-] (configuration not stated) | 1.2
93 | CC(C)COC(N)=O | 0.65
94 | C=CC=CCC | 3.16
95 | CC(=O)c1cccc(Cl)c1 | 2.51
96 | FS(F)(F)(F)(F)c1ccccc1 | 3.36
97 | CNC(=O)Oc1cccc(OC(C)C)c1 | 1.96
98 | CCCNC(C)CC (configuration not stated) | 1.91
99 | CC(C)C(=O)OCC1CCC(n2cnc3c(=O)[nH]cnc32)O1 (configuration not stated) | 0.02
100 | CC(=O)Nc1cccc(OCc2cccc(NC(=N)NC(=N)N)c2)c1 | 1.82
101 | CN1C(=O)CN=C(c2ccccc2F)c2cc(F)ccc21 | 2.41
102 | COc1ccc(C(C[N+](=O)[O-])c2ccc(OC)cc2)cc1 | 3.57
103 | CCBr | 1.61
104 | O=C(NO)c1ccccc1 | 0.26

Row | SMILES | logP
105 | CCC(=O)c1ccccc1 | 2.19
106 | Nc1ccc(S(=O)(=O)c2ccc(N)cc2)cc1 | 0.97
107 | CN(C)CCCc1ccco1 | 2.08
108 | OCc1ccc2ccccc2c1 | 2.21
109 | CC(C)C(=O)Nc1ccccc1 | 1.95
110 | NCCCc1cccnc1 | 0.44
111 | CCCCCCCCCCCCOS(=O)(=O)[O-].[Na+] | 1.6
112 | O=[N+]([O-])c1cc(Cl)ccc1Cl | 3.09
113 | N#CN/C(N)=N/c1ccccc1 | 1.05
114 | O=[N+]([O-])c1nccn1CC(F)(F)CO | 0.04
115 | FC(F)(F)c1nc2cc(Cl)c(Cl)cc2[nH]1 | 3.49
116 | CCN(CC)C(=O)[C@@H]1C=C2c3cccc4[nH]cc(c34)C[C@H]2N(C)C1 | 2.95
117 | c1cnc2nccnc2c1 | -0.04
118 | NC(=O)Nc1cccc(OCC(=O)O)c1 | 0.26
119 | COc1ccccc1OCC(=O)O | 0.98
120 | CC(C)NC(=O)C=Cc1ccc([N+](=O)[O-])o1 | 1.34
121 | Oc1cccc(Cl)c1Cl | 2.84
122 | CC(=O)N[C@@H](CC(C)C)C(=O)N[C@H](C(N)=O)C(C)C (Ac-Leu-Val-NH2) | 0.26
123 | O=NN(CCCl)C(=O)NC1CCCCCCCCCCC1 | 5.64
124 | CC(=O)C=Cc1ccco1 | 1.35
125 | NNC(=O)c1ccccc1 | 0.19
126 | CCCCNC(=O)c1cccnc1 | 0.9
127 | CC(C)NC(=O)NO | 0.2
128 | O=[N+]([O-])c1ccnc2ccccc12 | 2.06
129 | CN(C)C(N(C)C)=S(I)c1ccc(I)cc1 (configuration not stated) | 0.28
130 | O=C(c1ccccc1)c1ccccc1O | 3.52

Row | SMILES | logP
131 | Cc1cc(O)c(C(C)C)cc1Cl | 3.92
132 | O=C1CCC(c2ccccc2)(C2CCN(Cc3ccccc3)CC2)C(=O)N1 (configuration not stated) | 3.55
133 | CCN(C)C | 0.7
134 | CCCCCCCCOC(=O)c1cc(O)c(O)c(O)c1 | 3.66
135 | c1ccc2c(c1)sc1ccccc12 | 4.38
136 | N#Cc1cccc2cccnc12 | 1.39
137 | ClC(Cl)C(Cl)(Cl)Cl | 3.22
138 | OC1CCCCC1 | 1.23
139 | O=[N+]([O-])c1ccc(-c2ccccc2)cc1 | 3.82
140 | CC(=O)c1ccc(C(C)=O)cc1 | 1.34
141 | CCC(OC(C)=O)C(CC(C)N(C)C)(c1ccccc1)c1ccccc1 (configuration not stated) | 4.27
142 | CC(=O)NCc1cc(C(=O)NN)ccn1 | -1.58
143 | O=C1CCC(=O)N1c1cccc([N+](=O)[O-])c1 | 0.38
144 | CCCCCCCCC1(c2ccncc2)CCC(=O)NC1=O (configuration not stated) | 4.04
145 | O=C(O)Cc1ccccc1Nc1c(F)cccc1Cl | 3.8
146 | Fc1ccccc1Cn1cc[nH]c1=S | 1.77
147 | Cl[C@H]1[C@H](Cl)[C@@H](Cl)[C@@H](Cl)[C@H](Cl)[C@H]1Cl (racemic) | 3.72
148 | COc1c(O)c(OC)c(OC)c(O)c1OC | 0.39
149 | O=Cc1ccc[nH]1 | 0.64
150 | COc1cccnc1CCCCNc1ncc(Cc2ccc(C)nc2)c(=O)[nH]1 | 2.58
151 | COP(=O)(NC(C)=O)SC (configuration not stated) | -0.85
152 | Cc1cccc(C)n1 | 1.68
153 | Cc1cccc(CO)c1 | 1.6
154 | CCOP(=S)(OCC)SC(CCl)N1C(=O)c2ccccc2C1=O (configuration not stated) | 4.69
155 | CCCCCCCOC(=O)c1ccc(O)cc1 | 4.83
156 | COc1ccc(C(c2ccc(OC)cc2)C(C)[N+](=O)[O-])cc1 (configuration not stated) | 3.87

Row | SMILES | logP
157 | CNCC(c1ccccc1)C(C)C (configuration not stated) | 3.12
158 | BrC1CCCCC1 | 3.2
159 | CCOP(=O)(OCC)OCC | 0.8
160 | CCCC[Si](C)(C)C | 4.2
161 | Cc1ccc(C)c2ccccc12 | 4.37
162 | C=CCCC(C)=O | 1.02
163 | NC(CC12CC3CC(CC(C3)C1)C2)C(=O)O (configuration not stated) | 0.43
164 | COc1cccc(C=O)c1O | 1.37
165 | CC(C)C(=O)NN | -0.63
166 | Cc1ccc(NC(=O)N(C)C)cc1 | 1.33
167 | Nc1nc2ccccc2[nH]1 | 0.91
168 | CCCCOc1ccc(C(=O)OCCN(C)C)cc1 | 3.91
169 | O=C1c2ccccc2C(=O)N1c1ccccc1 | 2.4
170 | CN(Cc1ccc(C#N)cc1)N=O | 0.95
171 | Cc1cc(C)c(C)cc1C | 4
172 | Cc1cccc(C)c1[N+](=O)[O-] | 2.95
173 | Oc1ccccc1C(F)(F)F | 2.8
174 | CCCN(CCC)CCC | 2.79
175 | NC(=O)Oc1ccccc1 | 1.08
176 | NC(=S)N1CCCCC1 | 0.73
177 | CCCN(CCC)C(=O)SCC | 3.21
